# Reference: article PMC10850145, “Hormonal steroids induce multidrug resistance and stress response genes in Neisseria gonorrhoeae by binding to MtrR” (Nature Communications, 2024)
# Where “and” joins values, the source holds several entries; their conditions need not be identical. Equal values may be shown once.
# What was measured:
# FA19 mtrD::kan (KH14) = assay: MIC of steroidal hormones on GC agar, FA19 mtrD::kan (KH14); type: cell-based, Neisseria gonorrhoeae
# Procedure: To determine the minimal inhibitory concentrations (MICs) by the steroidal hormones and their effect on antimicrobial susceptibility, 5 x 10^5 CFU and 1:5 serial dilutions of gonococcal strains were spotted on GC agar plates containing different concentrations of antibiotics and/or hormones as indicated. Antimicrobial susceptibility was assessed after 24 h incubation.
# Table S1. Steroidal hormones are substrates of the MtrCDE efflux pump
# Progesterone Testosterone
# *Minimal inhibition concentration is defined by the lowest concentration at which visible growth is […]
# [1] = biological target: T1, MtrR binding to mtrCDE operator (21mer) (Neisseria gonorrhoeae, UniProt P39897); assay: Fluorescence polarization based DNA binding assay, mtrCDE operator; conditions: mtrCDE 21mer + 125 µM steroid
# T1 construct: Hexa-histidine tag with TEV protease cleavage site (N, cleaved yes); made in house; host or cells: E. coli Rosetta Gami B(DE3) pLysS
# Procedure: Fluorescence polarization based-DNA binding data were collected using a Panvera Beacon 2000 fluorescence polarization system (Invitrogen) and analyzed with Prism (Graphpad Software 9, 10). Purified MtrR was buffer exchanged into “DNA” binding buffer (150 mM NaCl, 20 mM Tris-HCl pH 7.5, 2.5% glycerol, 1 mM TCEP). […] The reported oligoduplexes containing the rpoH and mtrCDE binding site differ in lengths, 27mer and 21mer, respectively[17],[21]. […] BSA and dI-dC are included as carriers and to control for nonspecific DNA binding. Samples were excited at 490 nm and polarized emissions measured at 530 nm. Controls were run with no protein (DNA ± methanol, hormonal steroids) to ensure that millipolarization values were not affected by experimental conditions alone. The binding affinity of protein for DNA was determined using the following equation: P = Pf + (Pb – Pf) [M] / (Kd + [M]) where P is the measured polarization, Pf is the polarization of free DNA, Pb is the polarization of the completely bound DNA, Kd is the equilibrium dissociation constant, and M is the concentration of protein. Pb and Kd were determined by nonlinear least-squares analysis. At least three independent experimental measurements were averaged for each reported binding constant.
# MtrR = biological target: T2, MtrR (Neisseria gonorrhoeae, UniProt P39897); assay: Isothermal titration calorimetry, ligand binding to MtrR WT; conditions: equilibrium dissociation constant (Kd), MtrR WT, ITC, 25 °C, 1% MeOH
# T2 construct: Hexa-histidine tag with TEV protease cleavage site (N, cleaved yes); made in house; host or cells: E. coli Rosetta Gami B(DE3) pLysS
# FA19-rpoH-lacZ = assay: Gonococcal growth in liquid culture (GC broth) with hormones (Fig S7)
# T1 sequence (P39897 whole entry): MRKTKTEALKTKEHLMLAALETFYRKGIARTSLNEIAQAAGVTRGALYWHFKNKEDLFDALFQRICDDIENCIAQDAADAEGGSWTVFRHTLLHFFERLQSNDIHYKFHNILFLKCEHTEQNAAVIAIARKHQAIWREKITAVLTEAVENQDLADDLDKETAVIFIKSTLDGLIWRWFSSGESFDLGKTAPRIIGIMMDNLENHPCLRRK
# T2 sequence (P39897 whole entry): as above
smiles,measurement,setting,value
"CC(=O)[C@H]1CC[C@H]2[C@@H]3CCC4=CC(=O)CC[C@]4(C)[C@H]3CC[C@]12C [Progesterone, progesterone]",MIC,FA19 mtrD::kan (KH14); Neisseria gonorrhoeae,20 µg/mL and 64 µM
same,effect of mtrD deletion on MIC,FA19 mtrD::kan (KH14); vs FA19,lowered
same,"fluorescence polarization, MtrR titration",[1]; MtrR WT dimer 0.00 nM,0.00 mP
same,"fluorescence polarization, MtrR titration",[1]; MtrR WT dimer 3.83 nM,3.14 mP
same,"fluorescence polarization, MtrR titration",[1]; MtrR WT dimer 8.85 nM,6.47 mP
same,"fluorescence polarization, MtrR titration",[1]; MtrR WT dimer 11.32 nM,7.37 mP and 3.83 mP and 6.23 mP
same,"fluorescence polarization, MtrR titration",[1]; MtrR WT dimer 16.21 nM,8.61 mP and 4.53 mP and 7.86 mP
same,"fluorescence polarization, MtrR titration",[1]; MtrR WT dimer 35.50 nM,11.01 mP and 7.99 mP and 10.09 mP
same,"fluorescence polarization, MtrR titration",[1]; MtrR WT dimer 73.35 nM,14.94 mP and 12.16 mP and 13.46 mP
same,"fluorescence polarization, MtrR titration",[1]; MtrR WT dimer 110.67 nM,19.14 mP and 15.56 mP and 17.23 mP
same,"fluorescence polarization, MtrR titration",[1]; MtrR WT dimer 147.65 nM,23.64 mP and 19.79 mP and 21.69 mP
same,"fluorescence polarization, MtrR titration",[1]; MtrR WT dimer 220.59 nM,29.74 mP and 25.09 mP and 27.23 mP
same,"fluorescence polarization, MtrR titration",[1]; MtrR WT dimer 292.55 nM,32.91 mP and 28.39 mP and 31.63 mP
same,"fluorescence polarization, MtrR titration",[1]; MtrR WT dimer 363.86 nM,35.71 mP and 31.19 mP and 34.99 mP
same,"fluorescence polarization, MtrR titration",[1]; MtrR WT dimer 434.54 nM,39.37 mP and 32.93 mP and 37.49 mP
same,"fluorescence polarization, MtrR titration",[1]; MtrR WT dimer 504.61 nM,40.97 mP and 36.33 mP and 40.13 mP
same,"fluorescence polarization, MtrR titration",[1]; MtrR WT dimer 574.07 nM,43.64 mP and 38.96 mP and 42.59 mP
same,"fluorescence polarization, MtrR titration",[1]; MtrR WT dimer 711.46 nM,46.37 mP and 42.63 mP and 45.23 mP
same,"fluorescence polarization, MtrR titration",[1]; MtrR WT dimer 848.00 nM,49.37 mP and 45.06 mP and 48.53 mP
same,Kd,MtrR,2750 ± 700 nM
same,growth curve reading after BLANKING,"FA19-rpoH-lacZ; 0 hr, 0.1 µM",0.013
same,"growth curve reading, raw replicates","FA19-rpoH-lacZ; 0 hr, 0.1 µM",0.046
same,growth curve reading after BLANKING,"FA19-rpoH-lacZ; 0 hr, 1 µM",0.013
same,"growth curve reading, raw replicates","FA19-rpoH-lacZ; 0 hr, 1 µM",0.046
same,growth curve reading after BLANKING,"FA19-rpoH-lacZ; 0 hr, 10 µM",0.013
same,"growth curve reading, raw replicates","FA19-rpoH-lacZ; 0 hr, 10 µM",0.046
same,growth curve reading after BLANKING,"FA19-rpoH-lacZ; 0 hr, 25 µM",0.013
same,"growth curve reading, raw replicates","FA19-rpoH-lacZ; 0 hr, 25 µM",0.046
same,growth curve reading after BLANKING,"FA19-rpoH-lacZ; 0 hr, 50 µM",0.013
same,"growth curve reading, raw replicates","FA19-rpoH-lacZ; 0 hr, 50 µM",0.046
same,growth curve reading after BLANKING,"FA19-rpoH-lacZ; 1.18 hr, 0.1 µM",0.018
same,"growth curve reading, raw replicates","FA19-rpoH-lacZ; 1.18 hr, 0.1 µM",0.051 and 0.052
same,growth curve reading after BLANKING,"FA19-rpoH-lacZ; 1.18 hr, 1 µM",0.020
same,"growth curve reading, raw replicates","FA19-rpoH-lacZ; 1.18 hr, 1 µM",0.051 and 0.054
same,growth curve reading after BLANKING,"FA19-rpoH-lacZ; 1.18 hr, 10 µM",0.019
same,"growth curve reading, raw replicates","FA19-rpoH-lacZ; 1.18 hr, 10 µM",0.051 and 0.052
same,growth curve reading after BLANKING,"FA19-rpoH-lacZ; 1.18 hr, 25 µM",0.018
same,"growth curve reading, raw replicates","FA19-rpoH-lacZ; 1.18 hr, 25 µM",0.051 and 0.052
same,growth curve reading after BLANKING,"FA19-rpoH-lacZ; 1.18 hr, 50 µM",0.017
same,"growth curve reading, raw replicates","FA19-rpoH-lacZ; 1.18 hr, 50 µM",0.049 and 0.051
same,growth curve reading after BLANKING,"FA19-rpoH-lacZ; 2 hr, 0.1 µM",0.029
same,"growth curve reading, raw replicates","FA19-rpoH-lacZ; 2 hr, 0.1 µM",0.062
same,growth curve reading after BLANKING,"FA19-rpoH-lacZ; 2 hr, 1 µM",0.031
same,"growth curve reading, raw replicates","FA19-rpoH-lacZ; 2 hr, 1 µM",0.063 and 0.066
same,growth curve reading after BLANKING,"FA19-rpoH-lacZ; 2 hr, 10 µM",0.029
same,"growth curve reading, raw replicates","FA19-rpoH-lacZ; 2 hr, 10 µM",0.062
same,growth curve reading after BLANKING,"FA19-rpoH-lacZ; 2 hr, 25 µM",0.030
same,"growth curve reading, raw replicates","FA19-rpoH-lacZ; 2 hr, 25 µM",0.062 and 0.065
same,growth curve reading after BLANKING,"FA19-rpoH-lacZ; 2 hr, 50 µM",0.026
same,"growth curve reading, raw replicates","FA19-rpoH-lacZ; 2 hr, 50 µM",0.060 and 0.059
same,growth curve reading after BLANKING,"FA19-rpoH-lacZ; 3 hr, 0.1 µM",0.038
same,"growth curve reading, raw replicates","FA19-rpoH-lacZ; 3 hr, 0.1 µM",0.072 and 0.070
same,growth curve reading after BLANKING,"FA19-rpoH-lacZ; 3 hr, 1 µM",0.046
same,"growth curve reading, raw replicates","FA19-rpoH-lacZ; 3 hr, 1 µM",0.080 and 0.077
same,growth curve reading after BLANKING,"FA19-rpoH-lacZ; 3 hr, 10 µM",0.037
same,"growth curve reading, raw replicates","FA19-rpoH-lacZ; 3 hr, 10 µM",0.070
same,growth curve reading after BLANKING,"FA19-rpoH-lacZ; 3 hr, 25 µM",0.046
same,"growth curve reading, raw replicates","FA19-rpoH-lacZ; 3 hr, 25 µM",0.079
same,growth curve reading after BLANKING,"FA19-rpoH-lacZ; 3 hr, 50 µM",0.033
same,"growth curve reading, raw replicates","FA19-rpoH-lacZ; 3 hr, 50 µM",0.067 and 0.065
same,growth curve reading after BLANKING,"FA19-rpoH-lacZ; 4 hr, 0.1 µM",0.053
same,"growth curve reading, raw replicates","FA19-rpoH-lacZ; 4 hr, 0.1 µM",0.086
same,growth curve reading after BLANKING,"FA19-rpoH-lacZ; 4 hr, 1 µM",0.062
same,"growth curve reading, raw replicates","FA19-rpoH-lacZ; 4 hr, 1 µM",0.093 and 0.096
same,growth curve reading after BLANKING,"FA19-rpoH-lacZ; 4 hr, 10 µM",0.050
same,"growth curve reading, raw replicates","FA19-rpoH-lacZ; 4 hr, 10 µM",0.082 and 0.084
same,growth curve reading after BLANKING,"FA19-rpoH-lacZ; 4 hr, 25 µM",0.062
same,"growth curve reading, raw replicates","FA19-rpoH-lacZ; 4 hr, 25 µM",0.096 and 0.093
same,growth curve reading after BLANKING,"FA19-rpoH-lacZ; 4 hr, 50 µM",0.044
same,"growth curve reading, raw replicates","FA19-rpoH-lacZ; 4 hr, 50 µM",0.076 and 0.078
same,growth curve reading after BLANKING,"FA19-rpoH-lacZ; 5 hr, 0.1 µM",0.071
same,"growth curve reading, raw replicates","FA19-rpoH-lacZ; 5 hr, 0.1 µM",0.103 and 0.104
same,growth curve reading after BLANKING,"FA19-rpoH-lacZ; 5 hr, 1 µM",0.079
same,"growth curve reading, raw replicates","FA19-rpoH-lacZ; 5 hr, 1 µM",0.110 and 0.113
same,growth curve reading after BLANKING,"FA19-rpoH-lacZ; 5 hr, 10 µM",0.065
same,"growth curve reading, raw replicates","FA19-rpoH-lacZ; 5 hr, 10 µM",0.096 and 0.099
same,growth curve reading after BLANKING,"FA19-rpoH-lacZ; 5 hr, 25 µM",0.078
same,"growth curve reading, raw replicates","FA19-rpoH-lacZ; 5 hr, 25 µM",0.113 and 0.110
same,growth curve reading after BLANKING,"FA19-rpoH-lacZ; 5 hr, 50 µM",0.056
same,"growth curve reading, raw replicates","FA19-rpoH-lacZ; 5 hr, 50 µM",0.087 and 0.090
same,growth curve reading after BLANKING,"FA19-rpoH-lacZ; 5.95 hr, 0.1 µM",0.089
same,"growth curve reading, raw replicates","FA19-rpoH-lacZ; 5.95 hr, 0.1 µM",0.121 and 0.123
same,growth curve reading after BLANKING,"FA19-rpoH-lacZ; 5.95 hr, 1 µM",0.097
same,"growth curve reading, raw replicates","FA19-rpoH-lacZ; 5.95 hr, 1 µM",0.130
same,growth curve reading after BLANKING,"FA19-rpoH-lacZ; 5.95 hr, 10 µM",0.080
same,"growth curve reading, raw replicates","FA19-rpoH-lacZ; 5.95 hr, 10 µM",0.112 and 0.115
same,growth curve reading after BLANKING,"FA19-rpoH-lacZ; 5.95 hr, 25 µM",0.095
same,"growth curve reading, raw replicates","FA19-rpoH-lacZ; 5.95 hr, 25 µM",0.130 and 0.126
same,growth curve reading after BLANKING,"FA19-rpoH-lacZ; 5.95 hr, 50 µM",0.070
same,"growth curve reading, raw replicates","FA19-rpoH-lacZ; 5.95 hr, 50 µM",0.103 and 0.104
same,growth curve reading after BLANKING,"FA19-rpoH-lacZ; 6.82 hr, 0.1 µM",0.100
same,"growth curve reading, raw replicates","FA19-rpoH-lacZ; 6.82 hr, 0.1 µM",0.130
same,growth curve reading after BLANKING,"FA19-rpoH-lacZ; 6.82 hr, 1 µM",0.112
same,growth curve reading after BLANKING,"FA19-rpoH-lacZ; 6.82 hr, 10 µM",0.091
same,"growth curve reading, raw replicates","FA19-rpoH-lacZ; 6.82 hr, 10 µM",0.126 and 0.123
same,growth curve reading after BLANKING,"FA19-rpoH-lacZ; 6.82 hr, 25 µM",0.109
same,growth curve reading after BLANKING,"FA19-rpoH-lacZ; 6.82 hr, 50 µM",0.083
same,"growth curve reading, raw replicates","FA19-rpoH-lacZ; 6.82 hr, 50 µM",0.114 and 0.119
